From the NIST ThermoML archive (doi:10.1021/acs.jced.7b00257)
Numbers after ± are expanded uncertainties.

Test: mn = molality of the nth substance listed, in mol/kg
Settings: 100 kPa, Liquid; for speed of sound: Frequency=3 MHz, Sing-around technique in a fixed-path interferometer; for mass density: Vibrating tube method

N.O=P(O)(O)O [ammonium dihydrogen phosphate] + O
Settings | mass density, 288.15 K [kg/m3] | mass density, 298.15 K [kg/m3] | mass density, 308.15 K [kg/m3] | mass density, 318.15 K [kg/m3] | speed of sound, 288.15 K [m/s] | speed of sound, 298.15 K [m/s] | speed of sound, 308.15 K [m/s] | speed of sound, 318.15 K [m/s]
m1 = 0.5 | 1029.89 ± 0.11 | 1026.93 ± 0.11 | 1023.68 ± 0.11 | 1019.89 ± 0.11 | 1507.2 ± 1.2 | 1534.7 ± 1.2 | 1555.7 ± 1.2 | 1570.8 ± 1.2
m1 = 1 | 1057.21 ± 0.12 | 1054.11 ± 0.12 | 1050.64 ± 0.12 | 1046.76 ± 0.12 | 1544.3 ± 1.3 | 1569.5 ± 1.3 | 1588.6 ± 1.2 | 1602.3 ± 1.2
m1 = 1.5 | 1082.49 ± 0.12 | 1079.39 ± 0.12 | 1075.63 ± 0.12 | 1071.69 ± 0.12 | 1579.5 ± 1.3 | 1602.2 ± 1.3 | 1619.5 ± 1.3 | 1631.7 ± 1.3
m1 = 2 | 1105.65 ± 0.13 | 1102.5 ± 0.13 | 1098.68 ± 0.13 | 1094.7 ± 0.13 | 1613.6 ± 1.3 | 1634.1 ± 1.3 | 1649.6 ± 1.3 | 1660.4 ± 1.3
